As usually defined, the IC50 is the point on the concentration scale where inhibition reaches its midpoint.

Here are results for 38 molecules from paper PMC10826043 (BMC Complementary Medicine and Therapies, 2024).

One assay addresses T1, α-amylase from porcine pancreas (Sus scrofa, UniProt P00690).
T1 construct: α-amylase from porcine pancreas (A3176); purchased Sigma-Aldrich (Germany) A3176; host or cells: porcine pancreas (tissue-derived)
T1 sequence (P00690 16-511): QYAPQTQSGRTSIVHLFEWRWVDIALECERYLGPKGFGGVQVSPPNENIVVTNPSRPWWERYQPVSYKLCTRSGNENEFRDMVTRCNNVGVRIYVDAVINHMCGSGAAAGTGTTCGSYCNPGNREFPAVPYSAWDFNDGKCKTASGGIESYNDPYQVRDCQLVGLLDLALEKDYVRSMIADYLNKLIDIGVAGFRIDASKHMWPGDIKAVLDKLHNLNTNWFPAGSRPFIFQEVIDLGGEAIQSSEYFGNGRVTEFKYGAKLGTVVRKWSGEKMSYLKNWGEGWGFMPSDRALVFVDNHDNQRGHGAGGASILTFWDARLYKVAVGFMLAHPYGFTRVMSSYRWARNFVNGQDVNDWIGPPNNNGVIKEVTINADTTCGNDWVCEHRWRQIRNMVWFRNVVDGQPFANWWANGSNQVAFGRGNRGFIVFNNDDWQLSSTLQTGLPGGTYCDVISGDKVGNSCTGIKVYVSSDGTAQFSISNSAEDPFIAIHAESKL
Kind of assay: In vitro pancreatic α-amylase inhibitory assay (starch/DNS, 540 nm). The assay is classed as biochemical. The following applies: 1% starch, pH 6.9, 25 °C, read-out: IC50 (α-amylase inhibition). How it is done: Analytical purity grade solvents were used throughout the study.
With reference to the established technique, the assay was carried out quantitatively with minor adjustments. Initially, 500µL test solution was preincubated with 500µL α-amylase solution (0.55 unit/mL) at 25°C for 10 min. The α-amylase was prepared in a buffer solution (0.02M sodium phosphate pH 6.9 with 0.006M NaCl). Afterwards, 500µL of 1% w/v starch in buffer solution was mixed in and left to incubate for 10 min at 25°C. To bring the reaction to a halt, 1mL dinitrosalicylic acid (DNS) was introduced and the mixture was placed in a boiling water bath for 3.5 min. After cooling to room temperature, the mixture was then diluted using 10mL distilled water and absorbance was measured using a Laxco spectrophotometer (α1502, Laxco Inc., USA) at λ 540nm. Blanks used throughout the experiment were made by adding pure buffer instead of α-amylase solution. […] To calculate the pancreatic α-amylase inhibitory activity, the following equation was used: %Inhibtion=100×1-Abs540nmExtract-Abs540nmPositivecontrol/Abs540nmNegativecontrol-Abs540nmPositivecontrol
Regarding `OCC1=C[C@@H](O)[C@@H]2C=CO[C@@H](O[C@@H]3O[C@H](CO)[C@@H](O)[C@H](O)[C@H]3O)[C@H]12` [Aucubin], the IC50 was determined as 2370 µM. Turning to `Oc1cc(O)c2c(c1)OC(c1ccc(O)c(O)c1)C(O)C2` (stereo not shown) [Catechin], the IC50 stood at 5040 ± 40 µM. Still for that read-out and setting: next, `O=C(/C=C/c1ccc(O)c(O)c1)O[C@@H]1C[C@](O)(C(=O)O)C[C@@H](O)[C@H]1O` [Chlorogenic Acid, chlorogenic acid]: 7390 ± 220 µM.

`O=c1cc(-c2ccc(O)c(O)c2)oc2cc(O)cc(O)c12` [Luteolin]: the IC50 was 6320 ± 30 µM. On the same count and under the same terms, next, `O=c1c(O)c(-c2cc(O)c(O)c(O)c2)oc2cc(O)cc(O)c12` [Myricetin]: 4910 ± 60 µM; `COc1c(-c2ccc(O)c(O)c2)oc2cc(O)cc(O)c2c1=O` [Quercetin-3-methylether, quercetin-3-methyl ether]: 6370 ± 110 µM; `COc1cc(O)c2c(=O)c(O)c(-c3ccc(O)c(O)c3)oc2c1` [Quercetin-7-methylether, quercetin-7-methyl ether]: 5010 ± 70 µM. In the case of `O=C(/C=C/c1ccc(O)c(O)c1)O[C@H](Cc1ccc(O)c(O)c1)C(=O)O` [Rosmarinic Acid, rosmarinic acid], the IC50 worked out at 7000 ± 90 µM.

The target of another assay is α-amylase.
Experiment: not given
The following applies: validation set, supplement ref [3]; cited from earlier work.
Take `O=c1cc(-c2ccc(O)c(O)c2)oc2cc(O)ccc12` [7, 3', 4'-trihydroxyflavone]: the IC50 was 16.3 ± 0.52 µM. With `O=C(O)C1OC(Oc2cc(O)c3c(=O)cc(-c4ccc(O)cc4)oc3c2)C(O)C(O)C1O` [Apigenin-7-O-β-D-glucopyranuronide], the IC50 was 10.4 ± 2.51 µM. For `O=c1cc(-c2ccc(O)cc2)oc2cc(O)cc(O)c12` [Apigenin], the IC50 is 12.2 ± 2.14 µM. As to `COc1ccc(-c2oc3cc(O)cc(O)c3c(=O)c2O)cc1` [Kaempferide], the IC50 was 22.9 ± 3.17 µM. `Oc1cc(O)c2c(c1)O[C@H](c1ccc(O)c(O)c1)[C@H](O)C2` [L-epicatechin]: the IC50 was 31.5 ± 2.21 µM. For the molecule `O=c1cc(-c2ccc(O)c(O)c2)oc2cc(O)cc(O)c12` [Luteolin], the IC50 was 14.6 ± 0.74 µM. As for `O=C1C[C@@H](c2ccc(O)cc2)Oc2cc(O)cc(O)c21` [Naringenin], the half-maximal inhibitory concentration (IC50) was 21.9 ± 3.21 µM. As for `O=c1c(O)c(-c2ccc(O)c(O)c2)oc2cc(OC3OC(CO)C(O)C(O)C3O)c(O)c(O)c12` [Quercetagetin-7-O-β-D-glucopyranoside], the IC50 is 8.04 ± 0.69 µM. `COc1c(-c2ccc(O)c(O)c2)oc2cc(O)cc(O)c2c1=O` [Quercetin-3-methylether, quercetin-3-methyl ether]: the IC50 was 13.6 ± 2.04 µM.

The assay is the same for the next values; noted with them: validation set, supplement ref [4]; cited from earlier work.
Consider `O=C(O[C@@H]1Cc2c(O)cc(O)cc2O[C@@H]1c1cc(O)c(O)c(O)c1)c1cc(O)c(O)c(O)c1` [Epigallocatechin gallate], for which the IC50 is 11.5 ± 0.02 µM.

The assay is the same for the next values; noted with them: validation set, supplement ref [5]; cited from earlier work.
Turning to `OC[C@H]1O[C@@H](Oc2cc3c(O[C@@H]4O[C@H](CO)[C@@H](O)[C@H](O)[C@H]4O)cc(O)cc3[o+]c2-c2ccc(O)c(O)c2)[C@H](O)[C@@H](O)[C@@H]1O` [Cyanidin-3,5-glucoside], the IC50 is 40 ± 7 µM.

As to `OC[C@H]1O[C@@H](Oc2cc3c(O)cc(O)cc3[o+]c2-c2ccc(O)c(O)c2)[C@H](O)[C@@H](O)[C@@H]1O` [Cyanidin-3-glucoside], the IC50 was 24 ± 3 µM.

As for `COc1cc(-c2[o+]c3cc(O)cc(O)c3cc2O[C@@H]2O[C@H](CO)[C@@H](O)[C@H](O)[C@H]2O)ccc1O` [Peonidin-3-glucoside], the IC50 was 75 ± 7 µM.

The same assay, now with this note: validation set, supplement ref [6]; cited from earlier work.
`C[C@@H]1O[C@@H](OC[C@H]2O[C@@H](Oc3cc4c(O)cc(O)cc4[o+]c3-c3ccc(O)c(O)c3)[C@H](O)[C@@H](O)[C@@H]2O)[C@H](O)[C@H](O)[C@H]1O` [Cyanidin-3-rutinoside]: the IC50 is 24.4 ± 0.1 µM.

Staying with this assay, now noted: validation set, supplement ref [7]; cited from earlier work.
Turning to `O=C(O)c1cc(O)c(O)c(O)c1` [Gallic acid], the IC50 was 27.8 ± 2.06 µM.

Still in this assay, the particulars now being: validation set, supplement ref [8]; cited from earlier work.
As for `O=c1c(O)c(-c2ccc(O)cc2)oc2cc(O)ccc12` [3,7,4'-Trihydroxyflavone], the IC50 was 59 ± 4 µM. In the case of `O=c1cc(-c2ccc(O)c(O)c2)oc2cccc(O)c12` [5,3',4'-Trihydroxyflavone], the IC50 was 148 ± 5 µM. Take `O=c1cc(-c2ccc(O)c(O)c2)oc2cc(O)c(Cl)c(O)c12` [6-Chloro-3',4',5,7-tetrahydroxyflavone]: the half-inhibitory concentration (IC50) is 44 ± 3 µM.

`O=c1c(O)c(-c2cc(O)c(O)c(O)c2)oc2cc(O)cc(O)c12` [Myricetin]: the IC50 is 107 ± 6 µM.

Still in this assay, the particulars now being: validation set, supplement ref [9]; cited from earlier work.
For `Oc1cc(O)c2c(c1)OC(c1ccc(O)c(O)c1)C(O)C2` (stereo not shown) [Catechin], the IC50 was 1160 ± 24 µM.

As to `O=C(/C=C/c1ccc(O)c(O)c1)O[C@@H]1C[C@](O)(C(=O)O)C[C@@H](O)[C@H]1O` [Chlorogenic Acid, chlorogenic acid], the IC50 is 1050 ± 18 µM.

Still in this assay, the particulars now being: validation set, supplement ref [10]; cited from earlier work.
For `O=C(O)c1ccc(O)c(O)c1` [Protocatechuic acid], the IC50 was 2650 ± 160 µM.

For `COc1cc(C(=O)O)cc(OC)c1O` [Syringic acid], the IC50 was 1980 ± 10 µM. Regarding `COc1cc(C(=O)O)ccc1O` [Vanillic acid], the IC50 was 2050 ± 10 µM.

The same assay, now with this note: validation set, supplement ref [11]; cited from earlier work.
As for `O=c1c(Cc2ccc(O)cc2)coc2cc(O)cc(O)c12` [5,7-dihydroxy-3-(4′-hydroxybenzyl) chromone], the IC50 was 2590 ± 50 µM. On to `Cc1c(O)cc2c(c1O)C(=O)C(Cc1ccc(O)cc1)CO2` (stereo not shown) [5,7-dihydroxy-6-methyl-3-(4′-hydroxybenzyl) chroman-4-one], for which the IC50 was 5990 ± 60 µM.

In the case of `COc1cc(OC)c2c(c1C)O[C@H](c1ccc(O)cc1)CC2` [(2S)-4′-hydroxy-5,7-dimethoxy-8-methylflavan], the IC50 was 6030 ± 270 µM.

The same assay, now with this note: validation set, supplement ref [12]; cited from earlier work.
On to `O=c1cc(-c2ccccc2)oc2cc(O)c(O)c(O)c12` [Baicalein], for which the IC50 is 11200 ± 200 µM. Take `O=c1cc(-c2ccccc2)oc2cc(O)cc(O)c12` [Chrysin]: the IC50 is 15300 ± 374 µM. In the case of `COc1cc(-c2oc3cc(O)cc(O)c3c(=O)c2O)ccc1O` [Isorhamnetin], the IC50 is 24900 ± 427 µM.

Still in this assay, the particulars now being: validation set, supplement ref [13]; cited from earlier work.
Turning to `O=C(O)/C=C/c1ccc(O)c(O)c1` [Caffeic acid], the IC50 was 19400 µM. For the molecule `O=C(O)c1ccccc1O` [Salicylic acid], the IC50 is 13000 µM. Regarding `COc1cc(/C=C/C(=O)O)cc(OC)c1O` [Sinapic acid], the IC50 is 37000 µM. As to `COc1cc(C=O)ccc1O` [Vanillin], the IC50 was 71000 µM. Regarding `O=C(O)C=Cc1ccc(O)cc1` [p-Coumaric acid], the IC50 is 34100 µM.
